From US7148009B2, “Cancer drug screen based on cell cycle uncoupling” (The Johns Hopkins University, priority 1996, dated 2006)

Columns and labels:
HCT116 p21+/+ cells = assay: Cell cycle analysis by flow cytometry, parental cells; details: Adriamycin 0.2 ug/ml
[1] = system: HCT116 cells with (+/+) p21 genes; assay: Apoptosis after drug treatment (phase contrast, H33258 staining, TUNEL), parental cells; assay type: cell-based, human; details: for cell fate (apoptosis) by phase contrast microscopy and H33258 staining: etoposide 5 ug/ml, camptothecan 0.1 ug/ml, time course
Method: (§1) HCT116 cells with (+/+) or without (−/−) p21 genes were generated by homologous recombination. Logarithmically-growing cells in McCoy's 5A medium with 10% fetal calf serum were treated with Adriamycin (0.2 ug/ml) for 90 hours. In FIG. 1b, the adherent cells were harvested by trypsinization and combined with cells floating in the media. After washing with Hanks Buffered Saline (HBS; Life Technologies), cells were resuspended in 40 ul HBS and added to 360 ul of a solution containing 0.7% NP-40, 4.7% formaldehyde and 11 ug/ml H133258 in phosphate buffered saline (PBS). Cells were then viewed under UV excitation and photographed with a Nikon Labophot microscope. In FIG. 1c, adherent cells were fixed in 1% formaldehyde, then incubated in the presence of exogenous terminal transferase and biotin-11-dUTP as previously described^7. Labeled cells were detected by immunoperoxidase staining (Vector).
(§2) Cells were grown, fixed, and stained as described in Example 1. Irradiation was delivered at 1 Gy/minute using a ^137Cs source. Apoptotic cells were recognized as condensed, punctate nuclei (examples in FIG. 1d) or ghosts with faintly stained, degrading nuclei. At least 200 cells were counted for each time point, and the experiment was repeated with results virtually identical to those shown. The error bars represent the Poisson standard deviation determined by taking the square root of counted events and converting it to percent abundance. All counting was done in a blinded fashion. The (+/−) cells contained one normal p21 allele and one allele deleted by homologous recombination^5.

HCT116 p21−/− cells = assay: Cell cycle analysis by flow cytometry, p21-deficient cells; details: Adriamycin 0.2 ug/ml
[2] = system: HCT116 cells without (−/−) p21 genes; assay: Apoptosis after drug treatment (phase contrast, H33258 staining, TUNEL), p21-deficient cells; assay type: cell-based, human
Method: as §1
as §2, with “At least 200 cells were counted for each time point, and the experiment was repeated with results virtually identical to those shown.” left out

[3] = system: HCT116 (+/−) cells, one normal p21 allele and one deleted; assay: Apoptosis after drug treatment, heterozygous cells; assay type: cell-based, human; details: Adriamycin 0.2 ug/ml, etoposide 5 ug/ml, camptothecan 0.1 ug/ml
Method: as §1, §2

[4] = longer treatments (beyond 30 hours)
[5] = p21−/− cells, Adriamycin 0.2 ug/ml, 90 hours

Row | SMILES | cell cycle distribution by flow cytometry (HCT116 p21+/+ cells; 30 hours of exposure) | flow cytometry profile (HCT116 p21+/+ cells; [4]) | cell morphology, phase contrast microscopy ([1]; Adriamycin 0.2 ug/ml, 90 hours) | nuclear morphology after H33258 staining ([1]; Adriamycin 0.2 ug/ml, 90 hours) | cell cycle distribution by flow cytometry (HCT116 p21−/− cells; 30 hours of exposure) | DNA content by flow cytometry (HCT116 p21−/− cells; [4]) | response in a second, independently isolated p21−/− clone ([2]; Adriamycin 0.2 ug/ml, time course of apoptosis) | TUNEL staining of DNA breaks characteristic of apoptosis [2, 5] | cell morphology, phase contrast microscopy [2, 5] | nuclear morphology after H33258 staining [2, 5] | kinetics of apoptosis compared with parental cells [3] | cell fate (apoptosis) by phase contrast microscopy and H33258 staining [1] | cell fate (apoptosis) by phase contrast microscopy and H33258 staining ([2]; p21−/− cells, etoposide 5 ug/ml, time course)
1 | COc1cccc2c1C(=O)c1c(O)c3c(c(O)c1C2=O)C[C@@](O)(C(=O)CO)C[C@@H]3O[C@H]1C[C@H](N)[C@H](O)[C@H](C)O1 [Adriamycin] | blocked in G1 and G2 phases, with few cells in S | remained largely unchanged | remained attached to the plate and appeared morphologically normal | homogeneous and round | a nearly pure population of G2-arrested cells was observed | began to accumulate DNA in excess of 4C, then died | identical | stained intensely by TUNEL | shrank, rounded, and detached from the dish, suggesting apoptosis | classic condensed and punctate nuclear morphology | behaved similarly to the parental cells |  | 
2 | CC[C@@]1(O)C(=O)OCc2c1cc1n(c2=O)Cc2cc3ccccc3nc2-1 [camptothecan] |  |  |  |  |  |  |  |  |  |  | revealed a heterozygote effect | eventually underwent apoptosis, but this was significantly delayed compared to p21-deficient cells | 
3 | COc1cc([C@@H]2c3cc4c(cc3[C@@H](O[C@@H]3O[C@@H]5CO[C@@H](C)O[C@H]5[C@H](O)[C@H]3O)[C@H]3COC(=O)[C@H]23)OCO4)cc(OC)c1O [etoposide] |  |  |  |  |  |  |  |  |  |  | behaved similarly to the parental cells | remained healthy | died
